Assay results taken from patent US20050267120A1 (Boehringer Ingelheim International GmbH, priority 2004, published 2005).

What was measured:
hMCH-1R = molecular target: T1, hMCH-1R (Homo sapiens, UniProt Q99705); experiment: MCH-1 receptor binding test; settings: 125I-MCH binding, membranes of CHO/Galpha16 cells stably transfected with hMCH-1R
T1 construct: expressed in transfected cells; host or cells: CHO/Galpha16 cells (membrane preparation)
Protocol: 200 μL of this membrane fraction (contains 1 to 3 μg of protein) are incubated for 60 minutes at ambient temperature with 100 pM of ^125I-tyrosyl melanin concentrating hormone (^125I-MCH commercially obtainable from NEN) and increasing concentrations of the test compound in a final volume of 250 μL. After the incubation the reaction is filtered using a cell harvester through 0.5% PEI treated fiberglass filters (GF/B, Unifilter Packard). The membrane-bound radioactivity retained on the filter is then determined after the addition of scintillator substance (Packard Microscint 20) in a measuring device (TopCount of Packard). […] The analysis of the concentration binding curve is carried out on the assumption of one receptor binding site.

[1] = long term trials; cited from earlier work
rats = settings: cited from earlier work

T1 sequence (Q99705 whole entry): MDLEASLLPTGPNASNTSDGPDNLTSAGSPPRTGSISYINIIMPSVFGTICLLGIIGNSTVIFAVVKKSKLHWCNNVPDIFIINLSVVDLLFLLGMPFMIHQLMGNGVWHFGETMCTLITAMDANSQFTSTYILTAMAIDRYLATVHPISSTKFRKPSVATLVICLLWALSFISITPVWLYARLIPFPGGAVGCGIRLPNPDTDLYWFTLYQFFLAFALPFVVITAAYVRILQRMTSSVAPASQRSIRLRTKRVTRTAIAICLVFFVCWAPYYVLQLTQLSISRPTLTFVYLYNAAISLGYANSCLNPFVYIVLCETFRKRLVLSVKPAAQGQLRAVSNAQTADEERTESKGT

| Structure (SMILES) | IC50 (hMCH-1R) | body weight change [1] | effects in behavioral experiments (rats) |
| --- | --- | --- | --- |
| OC[C@@H]1CCCN1CC1CCc2cc(C#Cc3ccc(-c4ccc(Cl)cc4)cn3)ccc2O1 (stereo partly shown) [Example 1.1] | 6 nM | – | – |
| CC1CCN(Cc2cc(=O)c3cc(C#Cc4ccc(-c5ccc(Cl)cc5)cn4)ccc3o2)CC1 [Example 2.1, 6-[5-(4-chlorophenyl)pyridin-2-ylethynyl]-2-(4-methylpiperidin-1-ylmethyl)-1-benzopyran-4-one] | 3 nM | – | – |
| COCC1=C(C(=O)OC)[C@H](c2ccc(F)c(F)c2)N(C(=O)NCCCN2CCC(c3cccc(NC(C)=O)c3)CC2)C(=O)N1 [SNAP-7941] | – | lose significant amounts of weight | anxiolytic and antidepressant effects |
